Assay results reported in patent US9993465B2, “2,5-disubstituted-pyridyl nicotinic ligands, and methods of use thereof” (Georgetown University, priority 2011, dated 2018).
Like-named read-outs stand apart in the source and are kept apart here.

Legend:
human α4β2 nAChRs = human α4β2 nAChRs (Homo sapiens (Human), UniProt P17787+P43681); assay: 86Rb+ efflux assay, agonist activity, α4β2; type: cell-based
Experimental: (§1) Their agonist activities were assessed by measuring stimulated ^86Rb^+ efflux from stably transfected cells, either expressing human α4β2 nAChRs or rat α3β4 receptors.
(§2) The cell lines expressing defined rat nAChR subtypes were established previously by stably transfecting HEK 293 cells with rat nAChR subunit genes. The cell line expressing human α4β2 nAChRs, YXα4β2H1, was established recently. These cell lines were maintained in minimum essential medium (MEM) supplemented with 10% fetal bovine serum, 100 units/mL penicillin G, […] and selective antibiotics at 37° C. with 5% CO2 in a humidified incubator. Fetal bovine serum was provided by Gemini Bio-Products (Woodland, Calif.). Tissue culture medium and antibiotics were obtained from Invitrogen Corporation (Carlsbad, Calif.), unless otherwise stated.
Functional properties of compounds at nAChRs expressed in the transfected cells were measured using ^86Rb^+ efflux assays as described previously. In brief, cells expressing human α4β2 or rat α3β4 nAChRs were plated into 24-well plates coated with poly-D-lysine. The plated cells were grown at 37° C. for 18 to 24 hour to reach 85-95% confluence. The cells were then incubated in growth medium (0.5 mL/well) containing ^86Rb^+ (2 μCi/mL) for 4 hour at 37° C. The loading mixture was then aspirated, and the cells were washed four times with 1 mL buffer (15 mM HEPES, 140 mM NaCl, 2 mM KCl, 1 mM MgSO4, 1.8 mM CaCl2, 11 mM Glucose, pH 7.4). One mL of buffer with or without compounds to be tested was then added to each well. After incubation for 2 min, the assay buffer was collected for measurements of ^86Rb^+ released from the cells. Cells were then lysed by adding 1 ml of 100 mM […] to each well, and the lysate was collected for determination of the amount of ^86Rb^+ that was in the cells at the end of the efflux assay. Radioactivity of assay samples and lysates was measured by liquid scintillation counting. Total loading (cpm) was calculated as the sum of the assay sample and the lysate of each well. The amount of ^86Rb^+ efflux was expressed as a percentage of ^86Rb^+ loaded. […] For obtaining EC50 and Emax values, stimulation curves were constructed in which 8 different concentrations of a ligand were included in the assay. […] EC50, Emax and IC50(10′) values were determined by nonlinear least-squares regression analyses (GraphPad, San Diego, Calif.).
The functional properties of the ligands were determined by ^86Rb^+ efflux assays in cells expressing α3β4 and α4β2 nAChR subtypes. The functional activity of each ligand was measured for its agonism, antagonism and desensitization ability. Agonist activity for each of the ligands was tested at eight different concentrations. […]

rat α3β4 nAChRs = rat α3β4 nAChRs (Rattus norvegicus (Rat), UniProt P04757+P12392); assay: 86Rb+ efflux assay, agonist activity, α3β4; type: cell-based
Experimental: as §1
as §2, with “Tissue culture medium and antibiotics were obtained from Invitrogen Corporation (Carlsbad, Calif.), unless otherwise stated.” left out
Functional properties of compounds at nAChRs expressed in the transfected cells were measured using ^86Rb^+ efflux assays as described previously. […] Radioactivity of assay samples and lysates was measured by liquid scintillation counting. Total loading (cpm) was calculated as the sum of the assay sample and the lysate of each well. The amount of ^86Rb^+ efflux was expressed as a percentage of ^86Rb^+ loaded. […] EC50, Emax and IC50(10′) values were determined by nonlinear least-squares regression analyses (GraphPad, San Diego, Calif.).
The functional properties of the ligands were determined by ^86Rb^+ efflux assays in cells expressing α3β4 and α4β2 nAChR subtypes. […]

[1] = target: native nAChRs of rat forebrain (Rattus norvegicus, UniProt P09483+P12390); type: binding; conditions: Table 1
Experimental: (§3) To determine selectivities of these compounds in binding assays among the three predominant nAChR subtypes, α3β4, α4β2 and α7, the ratios of Ki values (α3β4/α4β2 and α7/α4β2) were determined.
Briefly, cultured cells at >80% confluence were removed from their flasks (80 cm^2) with a disposable cell scraper and placed in 10 mL of 50 mM Tris.HCl buffer (pH 7.4, 4° C.). The cell suspension was centrifuged at 10,000×g for 5 min and the pellet was collected. The cell pellet was then homogenized in 10 mL buffer with a polytron homogenizer and centrifuged at 36,000 g for 10 min at 4° C. The membrane pellet was resuspended in fresh buffer, and aliquots of the membrane preparation were used for binding assays. […] Bound and free ligands were separated by vacuum filtration through Whatman GF/C filters treated with 0.5% polyethylenimine. The filter-retained radioactivity was measured by liquid scintillation counting. Specific binding was defined as the difference between total binding and nonspecific binding. Data from competition binding assays were analyzed using Prism 5 (GraphPad Software, San Diego, Calif.).
We measured the in vitro binding affinities of the ligands for defined receptor subtypes (α2β2, α2β4, α3β2, α3β4, α4β2, α4Γ4, α6β2, α6β4, and α7) expressed in stably transfected cell lines. […] Rat forebrain homogenates were included to allow comparison between the heterologous and native α4β2 and α7 nAChRs.

ferrets = assay: Emesis studies in ferrets; type: in vivo, ferret (Mustela putorius furo)
Experimental: Effects of (S)-15 in causing nausea and emesis were assessed in a ferret model. For comparison, varenicline was also tested. […] In general, all animals remained alert and active with periods of inactivity that mirrored their baseline behavior within the 1 hr observation period.
In one animal, this behavior was accompanied by oral stereotypy (licking), whereas in two animals it was interspersed by episodes of backward walking. On the average, these behaviors manifested around ˜2.20 min. […] Occasionally, when animals tried to ambulate they would immediately cease their movement after each attempt. This would, be followed by a momentary increase in breathing, giving the impression that the animal was in distress.
Studies were undertaken in male ferrets (Mustela putorius furo) weighing 0.9-1.5 kg (Marshall Farms, N.Y.). They were housed in controlled conditions of room temperature (22° C.) and light (12:12 h light-dark cycle) with free access to food and water. Prior to each experiment, food was withheld overnight, whereas water was provided ad libitum.
Emetic testing consisted of placing animals individually in a polycarbonate enclosure. Following a 30 min acclimation period, each animal randomly received a subcutaneus injection of varencline or compound (S)-15 (YL-1-127) in the subscapular region. A 60 min observation and video recording followed the drug administration. […] All drugs were dissolved in sterile saline.
Video analysis of the incidence of emesis, stereotypical behaviors (such as licking, mouth-clawing, backward walking, gagging, and burying of the head in cage) and GI side effects (diarrhea) was done off-line. Stereotypical behaviors are thought to be reflective of a subjective sensation of nausea. The emetic index of a drug was calculated as the percentage of animals displaying emesis (one or more times in 60 min) divided by the total number of animals tested. […]
The Nausea Index for the stereotypical behaviors was derived from the mean±SEM number of nausea behaviors observed among all animals in a given treatment group. Significance was determined at p<0.05.

rat α4β2 nAChR = rat α4β2 nAChR (Rattus norvegicus (Rat), UniProt P09483+P12390); type: binding; conditions: versus Sazetidine-A
Experimental: as §3, §2
Briefly, cultured cells at >80% confluence were removed from their flasks (80 cm^2) with a disposable cell scraper and placed in 10 mL of 50 mM Tris.HCl buffer (pH 7.4, 4° C.). […] The filter-retained radioactivity was measured by liquid scintillation counting. […] Data from competition binding assays were analyzed using Prism 5 (GraphPad Software, San Diego, Calif.).
We measured the in vitro binding affinities of the ligands for defined receptor subtypes (α2β2, α2β4, α3β2, α3β4, α4β2, α4Γ4, α6β2, α6β4, and α7) expressed in stably transfected cell lines. […]

## CN1CCC[C@H]1c1cccnc1 [(−)-Nicotine, (−)-nicotine, reference compound]
Human α4β2 nAChRs
  agonist activity at α4β2 nAChRs: full agonist activities
Rat α3β4 nAChRs
  agonist activity at α3β4 nAChRs: full agonist activities

## CCCCC#Cc1cnc(C)c(OC[C@H]2CCN2)c1 [(R)-15, (R)-3-(azetidin-2-ylmethoxy)-5-(hex-1-ynyl)-2-methylpyridine]
[1]
  Ki: 4.3 µM

## Cc1ncc(C#CCCCCCl)cc1OC[C@@H]1CCN1 [(S)-21, (S)-3-(azetidin-2-ylmethoxy)-5-(6-chlorohex-1-ynyl)-2-methylpyridine]
Human α4β2 nAChRs; result in words
  agonist activity at α4β2 nAChRs: didn't show detectable agonist activity
[1]
  Ki: 0.032 µM

## CCCCC#Cc1cnc(C)c(OC[C@@H]2CCN2)c1 [(S)-15, (S)-3-(azetidin-2-ylmethoxy)-5-(hex-1-ynyl)-2-methylpyridine]
ferrets; 1-30 mg/kg s.c., 1 hr observation
  emetic episodes or stereotypical behaviors indicative of nausea: did not elicit any emetic episodes or stereotypical behaviors that are indicative of nausea
[1]
  Ki: 0.052 µM

## OCCCCC#Cc1cncc(OC[C@@H]2CCN2)c1 [Sazetidine-A, reference compound]
[1]
  Ki: 0.00017 µM

## CCCCC#Cc1cnc(C)c(OC[C@@H]2CCCN2)c1 [(S)-16, (S)-5-(hex-1-ynyl)-2-methyl-3-(pyrrolidin-2-ylmethoxy)pyridine]
Human α4β2 nAChRs; result in words
  agonist activity at α4β2 nAChRs: didn't show detectable agonist activity
[1]
  Ki: 0.54 µM

## c1cnc2cc3c(cc2n1)[C@@H]1CNC[C@H]3C1 [Varenicline, varenicline]
ferrets; 0.5 mg/kg s.c.
  emetic episodes: no emetic episodes were observed
  time at which nausea behaviors manifested, on the average: ~2.20 min
[1]
  Ki: 0.0011 µM

## Cc1ncc(C#CCCCCO)cc1OC[C@@H]1CCN1 [(S)-17, (S)-6-(5-(azetidin-2-ylmethoxy)-6-methylpyridin-3-yl)hex-5-yn-1-ol]
[1]
  Ki: 0.011 µM
Rat α4β2 nAChR
  reduction in binding affinity for α4β2 nAChRs: 70 fold

## Cc1ncc(C#CCCCCF)cc1OC[C@@H]1CCN1 [(S)-22, (S)-3-(azetidin-2-ylmethoxy)-5-(6-fluorohex-1-ynyl)-2-methylpyridine]
Human α4β2 nAChRs; result in words
  agonist activity at α4β2 nAChRs: didn't show detectable agonist activity

## CCCCC#Cc1cnc(C)c(OC[C@H]2CCCN2)c1 [(R)-16, (R)-5-(hex-1-ynyl)-2-methyl-3-(pyrrolidin-2-ylmethoxy) pyridine]
[1]
  Ki: 110 µM

## Cc1ncc(C#CC2CC2)cc1OC[C@@H]1CCN1 [(S)-27, (S)-3-(azetidin-2-ylmethoxy)-5-(cyclopropylethynyl)-2-methylpyridine]
[1]
  Ki: 0.031 µM
